For 15 compounds, IC50 results are on record in patent US20220169654A1, “New Organic Compounds” (Servier Pharmaceuticals LLC, priority 2020, published 2022).

The target of the test is T1, MAT2A homodimer (Homo sapiens, UniProt P31153).
T1 construct: inferred from Ni sepharose purification with imidazole elution; made in house; host or cells: Sf9 insect cells, baculovirus (Bac to Bac, pFASTBAC1)
Kind of test: MAT2A inhibition (biochemical, liberated phosphate, PiColorLock Gold). Particulars: recombinant MAT2A homodimer; IC50 bin with Max Inh.; read-out: Enzyme Inhibition Bin. On the procedure: Mat2A protein was expressed by recombinant baculovirus in SF9 infected cells using the Bac to Bac system cloned into the pFASTBAC1 vector (Invitrogen, Carlsbad, Calif.). Recombinant MAT2A was isolated from the cell lysate of 150 g of infected cells using HP Ni sepharose column chromatography. Recombinant MAT2A homodimer was eluted with 250 and 500 mM imidazole, and fractions containing MAT2A were identified by sodium dodecyl sulfate polyacrylamide gel electrophoresis and pooled.
For determination of the inhibitory potency of compounds against the MAT2A homodimer, protein was diluted to 4 μg/mL in assay buffer (50 mM Tris, pH 8.0, 50 mM KCl, 15 mM MgCl2, 0.3 mM EDTA, 0.005% [w/v] bovine serum albumin [BSA]). Test compound was prepared in 100% dimethyl sulfoxide (DMSO) at 50× the desired final concentration. A 1 μL volume of compound dilution was added to 40 μL of enzyme dilution and the mixture was allowed to equilibrate for 60 minutes at 25° C. The enzymatic assay was initiated by the addition of 10 μL of substrate mix (500 μM ATP, pH 7.0, 400 μM L-methionine in 1× assay buffer), and the mixture was incubated for a further 60 minutes at 25° C. The reaction was halted and the liberated phosphate released by the enzyme in stoichiometric amounts by the production of S-adenosyl methionine (SAM) was measured using the PiColorLock Gold kit (Innova Biosciences, UK). Absolute product amounts were determined by comparison to a standard curve of potassium phosphate buffer, pH 8.0. The compounds were also tested in a secondary assay utilizing 1 μg/mL MAT2A and incubated for 5 hours at 25° C. before halting and processing as above.
Specific compounds disclosed herein were tested in the foregoing assay and they were determined to inhibit MAT2A with an IC50. See, Table 1 below.

The structures appear in SMILES notation.

T1 sequence (P31153 whole entry): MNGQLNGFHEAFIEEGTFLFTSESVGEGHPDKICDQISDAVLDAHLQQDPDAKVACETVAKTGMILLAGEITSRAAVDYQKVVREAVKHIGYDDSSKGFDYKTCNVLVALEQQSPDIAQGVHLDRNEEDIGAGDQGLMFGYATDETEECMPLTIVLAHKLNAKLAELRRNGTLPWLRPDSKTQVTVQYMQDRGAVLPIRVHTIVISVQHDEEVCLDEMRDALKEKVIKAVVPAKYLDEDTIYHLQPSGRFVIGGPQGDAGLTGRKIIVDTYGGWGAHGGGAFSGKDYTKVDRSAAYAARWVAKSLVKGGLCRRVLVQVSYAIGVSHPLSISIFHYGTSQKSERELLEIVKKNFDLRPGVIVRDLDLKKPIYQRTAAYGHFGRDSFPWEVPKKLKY

As to `CNS(=O)(=O)c1cn(CC2CC2)c2c(-c3ccc(OC(F)F)cc3)c(=O)n(-c3ccc4nn(C)cc4c3)nc12` [Example 183, 5-(cyclopropylmethyl)-4-(4-(difluoromethoxy)phenyl)-N-methyl-2-(2-methyl-2H-indazol-5-yl)-3-oxo-3,5-dihydro-2H-pyrrolo[3,2-c]pyridazine-7-sulfonamide], the IC50 was more than 10 µM. In the case of `Cn1cc2cc(-n3nc4c(S(C)(=O)=O)cn(CC5CC5)c4c(-c4ccc(C5CC5)cc4)c3=O)ccc2n1` [Example 262, 5-(cyclopropylmethyl)-4-(4-cyclopropylphenyl)-2-(2-methyl-2H-indazol-5-yl)-7-(methylsulfonyl)-2,5-dihydro-3H-pyrrolo[3,2-c]pyridazin-3-one], the IC50 is less than 1 µM. Then `CNS(=O)(=O)c1cn(CC2CC2)c2c(-c3ccc(C4CC4)cc3)c(=O)n(-c3ccc4nn(C)cc4c3)nc12` [Example 179, 5-(cyclopropylmethyl)-4-(4-cyclopropylphenyl)-N-methyl-2-(2-methyl-2H-indazol-5-yl)-3-oxo-3,5-dihydro-2H-pyrrolo[3,2-c]pyridazine-7-sulfonamide], with more than 10 µM; and `CN(C)C(=O)c1cn(CC2CC2)c2c(-c3ccc(C4CC4)nc3)c(=O)n(-c3ccc4nn(C)cc4c3)nc12` [Example 164, 5-(cyclopropylmethyl)-4-(6-cyclopropylpyridin-3-yl)-N,N-dimethyl-2-(2-methyl-2H-indazol-5-yl)-3-oxo-3,5-dihydro-2H-pyrrolo[3,2-c]pyridazine-7-carboxamide], with less than 1 µM; and `Cn1cc2cc(-n3nc4c(c(CC5CC5)cn4C)c(-c4ccc(OC(F)F)cc4)c3=O)ccc2n1` [Example 272, 5-(cyclopropylmethyl)-4-(4-(difluoromethoxy)phenyl)-7-methyl-2-(2-methyl-2H-indazol-5-yl)-2,7-dihydro-3H-pyrrolo[2,3-c]pyridazin-3-one], with less than 0.1 µM. Then `Cc1c(C#N)c2nn(-c3ccc4nn(C)cc4c3)c(=O)c(-c3ccc(C4CC4)nc3)c2n1CC1CC1` [Example 265, 5-(cyclopropylmethyl)-4-(6-cyclopropylpyridin-3-yl)-6-methyl-2-(2-methyl-2H-indazol-5-yl)-3-oxo-2H,3H,5H-pyrrolopyridazine-7-carbonitrile], with more than 10 µM; and `Cc1ccc(-c2c(=O)n(-c3ccc4nn(C)cc4c3)nc3c(C#N)c(C)n(CC4CC4)c23)cn1` [Example 266, 5-(cyclopropylmethyl)-6-methyl-2-(2-methyl-2H-indazol-5-yl)-4-(6-methylpyridin-3-yl)-3-oxo-2H,3H,5H-pyrrolopyridazine-7-carbonitrile], with more than 10 µM. Then `CN1CC=C(n2nc3ccn(CC4CC4)c3c(-c3ccc(C4CC4)nc3)c2=O)CC1` [Example 232, 5-(cyclopropylmethyl)-4-(6-cyclopropylpyridin-3-yl)-2-(1-methyl-1,2,3,6-tetrahydropyridin-4-yl)-2,5-dihydro-3H-pyrrolo[3,2-c]pyridazin-3-one], with more than 10 µM; and `CC(C)n1cc(C#N)c2nn(-c3ccc4nn(C)cc4c3)c(=O)c(-c3ccc(C4CC4)nc3)c21` [Example 146, 4-(6-cyclopropylpyridin-3-yl)-5-isopropyl-2-(2-methyl-2H-indazol-5-yl)-3-oxo-3,5-dihydro-2H-pyrrolo[3,2-c]pyridazine-7-carbonitrile], with less than 1 µM. Regarding `Cn1cc2cc(-n3nc4ccn(CC5CC5)c4c(-c4cncc(C(F)(F)F)c4)c3=O)ccc2n1` [Example 125, 5-(cyclopropylmethyl)-2-(2-methyl-2H-indazol-5-yl)-4-(5-(trifluoromethyl)pyridin-3-yl)-2,5-dihydro-3H-pyrrolo[3,2-c]pyridazin-3-one], the IC50 is more than 10 µM.

Turning to `CNS(=O)(=O)c1cn(CC2CC2)c2c(-c3ccc(C4CC4)nc3)c(=O)n(-c3ccc4nn(C)cc4c3)nc12` [Example 181, 5-(cyclopropylmethyl)-4-(6-cyclopropylpyridin-3-yl)-N-methyl-2-(2-methyl-2H-indazol-5-yl)-3-oxo-3,5-dihydro-2H-pyrrolo[3,2-c]pyridazine-7-sulfonamide], the IC50 was more than 10 µM. Regarding `Cn1cc2cc(-n3nc4c(S(C)(=O)=O)cn(CC5CC5)c4c(-c4ccc(C5CC5)nc4)c3=O)ccc2n1` [Example 261, 5-(cyclopropylmethyl)-4-(6-cyclopropylpyridin-3-yl)-2-(2-methyl-2H-indazol-5-yl)-7-(methylsulfonyl)-2,5-dihydro-3H-pyrrolo[3,2-c]pyridazin-3-one], the IC50 is less than 1 µM.

On to `Cn1cc2cc(-n3nc4ccn(CC5CC5)c4c(-c4cncc(Cl)c4)c3=O)ccc2n1` [Example 126, 4-(5-chloropyridin-3-yl)-5-(cyclopropylmethyl)-2-(2-methyl-2H-indazol-5-yl)-2,5-dihydro-3H-pyrrolo[3,2-c]pyridazin-3-one], for which the IC50 is less than 1 µM.

For the compound `CNS(=O)(=O)c1cn(CC2CC2)c2c(-c3ccc(C)nc3)c(=O)n(-c3ccc4nn(C)cc4c3)nc12` [Example 182, 5-(cyclopropylmethyl)-N-methyl-2-(2-methyl-2H-indazol-5-yl)-4-(6-methylpyridin-3-yl)-3-oxo-3,5-dihydro-2H-pyrrolo[3,2-c]pyridazine-7-sulfonamide], the IC50 is more than 10 µM. The figure for `CC(C)Cn1cc(C#N)c2nn(-c3ccc4nn(C)cc4c3)c(=O)c(-c3ccc(C4CC4)nc3)c21` [Example 121, 4-(6-cyclopropylpyridin-3-yl)-5-isobutyl-2-(2-methyl-2H-indazol-5-yl)-3-oxo-3,5-dihydro-2H-pyrrolo[3,2-c]pyridazine-7-carbonitrile] is less than 1 µM.
